Reference: US9464106B2, “Oligonucleotides useful for detecting and analyzing nucleic acids of interest” (Exiqon A/S, priority 2002, dated 2016)
l = locked nucleic acid (LNA); d = 2'-deoxy (DNA)

test system: yeast HSP78 (YDR258C) sequence; assay: Duplex melting temperatures of HSP78 25-mer capture probes (UV spectrophotometer); conditions: 25-mer capture probe duplex with complementary target; design PM = perfectly matched, MM = single mismatch; DNA, LNA_T (T) or LNA_TC (TC) substituted

Compared with “12680 (DNA ACCATCATCACCGAACTTTGTGTCG; DNA, backbone not given here) [compound 12680]”, “12681 (DNA CAATGATCGTGTAACGGAAATCAAC; DNA, backbone not given here) [compound 12681]” is lower in “Average duplex melting temp.” value: 63.6 °C for the first, 59.3 °C for the second.

Going from “12682 (DNA TGGCCTAGGGAAACGGTCAGCTTAC; DNA, backbone not given here) [compound 12682]” to “12683 (DNA TTGGAAACATCGCGGTGCGCTTTTT; DNA, backbone not given here) [compound 12683]”, the “Average duplex melting temp.” value falls from 65.2 °C to 61.5 °C.

First: 12684 (DNA GAAACATCGGGGAGCGCTTTTTCAA; DNA, backbone not given here) [compound 12684]
Second: 12685 (DNA GACAGCCTCAGTAAATTGGCCACCA; DNA, backbone not given here) [compound 12685]
The “Average duplex melting temp.” value of the first is lower: 63.8 °C for the first, 64.8 °C for the second.

First: 12686 (DNA CCGATTAAACGACAGACAGTATGCT; DNA, backbone not given here) [compound 12686]
Second: 12687 (DNA ATCAAATAGGAAATCAGCTAAAGCC; DNA, backbone not given here) [compound 12687]
The “Average duplex melting temp.” value of the first is higher: 57.1 °C for the first, 54.3 °C for the second.

Compared with “12688 (DNA GACCTAAGAACAAAAAGCTGGCAAT; DNA, backbone not given here) [compound 12688]”, “12689 (DNA AAATAGCAGCAAAGGCCTCGTCTTG; DNA, backbone not given here) [compound 12689]” is higher in “Average duplex melting temp.” value: 58.2 °C for the first, 64 °C for the second.

Going from “12690 (DNA ATAGCAGCAATGCCCTCGTCTTGGC; DNA, backbone not given here) [compound 12690]” to “12691 (DNA GCAATGGCCTCGACTTGGCCAACGA; DNA, backbone not given here) [compound 12691]”, the “Average duplex melting temp.” value rises from 62.9 °C to 68.5 °C.

Going from “12692 (DNA GATGAACTCAGGAGGATAGGATCTT; DNA, backbone not given here) [compound 12692]” to “12693 (DNA TCAGTTAGCCAAACCTTCGCTTCAT; DNA, backbone not given here) [compound 12693]”, the “Average duplex melting temp.” value rises from 58.2 °C to 61.4 °C.

First: 12694 (DNA GTTGCCATGGAGATCAAAATCTGTC; DNA, backbone not given here) [compound 12694]
Second: 12695 (DNA AGACGTACAGCAACAGAAATAGCAG; DNA, backbone not given here) [compound 12695]
The “Average duplex melting temp.” value of the first is lower: 60 °C for the first, 61.2 °C for the second.

First: 12696 (DNA TTTGGTAGCACGTCAAGCTTAGTAT; DNA, backbone not given here) [compound 12696]
Second: 12697 (DNA ATAAAGCTGGCATTAGGTCTCTTTT; DNA, backbone not given here) [compound 12697]
The “Average duplex melting temp.” value of the first is higher: 59.2 °C for the first, 58.4 °C for the second.

Compared with “12698 (DNA TTTTTCGGCCAATCGATCTTGAATT; DNA, backbone not given here) [compound 12698]”, “12699 (DNA CACTCTAACAGTATCGCCGTTTCTA; DNA, backbone not given here) [compound 12699]” is higher in “Average duplex melting temp.” value: 58.8 °C for the first, 61.1 °C for the second.

First: 12700 (DNA TCAATGGCCTTGGACCATATAATTG; DNA, backbone not given here) [compound 12700]
Second: 12701 (DNA AAAACGACAGCAAAAGGCTTTCTTC; DNA, backbone not given here) [compound 12701]
The “Average duplex melting temp.” value of the first is higher: 59.5 °C for the first, 58.8 °C for the second.

Compared with “12702 (DNA ATTGACCTCAAATCTTTCTTGGATA; DNA, backbone not given here) [compound 12702]”, “12703 (DNA CCCAACTTTGTGACGTTTAATAAAA; DNA, backbone not given here) [compound 12703]” is higher in “Average duplex melting temp.” value: 54.5 °C for the first, 56.2 °C for the second.

Going from “12704 (DNA ACCATCATCACCGAACTTTGTGTCG; DNA at ACG, LNA at T, backbone not given here) [compound 12704]” to “12705 (DNA CAATGATCGTGTAACGGAAATCAAC; sugars from the 5' end dddlddlddlddddddddddldddd, backbone not given here) [compound 12705]”, the “Average duplex melting temp.” value falls from 74 °C to 65.2 °C.

Going from “12706 (DNA TGGCCTAGGGAAACGGTCAGCTTAC; DNA at ACG, LNA at T, backbone not given here) [compound 12706]” to “12707 (DNA TTGGAAACATCGCGGTGCGCTTTTT; sugars from the 5' end lldddddddldddddlddddlllld, backbone not given here) [compound 12707]”, the “Average duplex melting temp.” value falls from 71.6 °C to 68.6 °C.

Going from “12708 (DNA GAAACATCGGGGAGCGCTTTTTCAA; sugars from the 5' end d6 l1 d10 l5 d3, backbone not given here) [compound 12708]” to “12709 (DNA GACAGCCTCAGTAAATTGGCCACCA; sugars from the 5' end d7 l1 d7 l2 d8, backbone not given here) [compound 12709]”, the “Average duplex melting temp.” value falls from 69.9 °C to 68.8 °C.

Compared with “12710 (DNA CCGATTAAACGACAGACAGTATGCT; sugars from the 5' end ddddlldddddddddddddldlddd, backbone not given here) [compound 12710]”, “12711 (DNA ATCAAATAGGAAATCAGCTAAAGCC; sugars from the 5' end dlddddldddddddddddldddddd, backbone not given here) [compound 12711]” is lower in “Average duplex melting temp.” value: 63.5 °C for the first, 58.1 °C for the second.

Going from “12712 (DNA GACCTAAGAACAAAAAGCTGGCAAT; sugars from the 5' end d4 l1 d13 l1 d6, backbone not given here) [compound 12712]” to “12713 (DNA AAATAGCAGCAAAGGCCTCGTCTTG; DNA at ACG, LNA at T, backbone not given here) [compound 12713]”, the “Average duplex melting temp.” value rises from 61.1 °C to 70.4 °C.

Compared with “12714 (DNA ATAGCAGCAATGCCCTCGTCTTGGC; DNA at ACG, LNA at T, backbone not given here) [compound 12714]”, “12715 (DNA GCAATGGCCTCGACTTGGCCAACGA; DNA at ACG, LNA at T, backbone not given here) [compound 12715]” is higher in “Average duplex melting temp.” value: 71.3 °C for the first, 73.7 °C for the second.

First: 12716 (DNA GATGAACTCAGGAGGATAGGATCTT; sugars from the 5' end ddlddddlddddddddlddddldld, backbone not given here) [compound 12716]
Second: 12717 (DNA TCAGTTAGCCAAACCTTCGCTTCAT; sugars from the 5' end ldddlldddddddddlldddllddd, backbone not given here) [compound 12717]
The “Average duplex melting temp.” value of the first is lower: 64.9 °C for the first, 69.4 °C for the second.

For “12718 (DNA GTTGCCATGGAGATCAAAATCTGTC; sugars from the 5' end dllddddldddddddddddldldld, backbone not given here) [compound 12718]”, the “Average duplex melting temp.” value was 69.2 °C.
